From patent US20110045101A1, “FUNGICIDAL SUBSTITUTED AZOLES” (E.I. Du Pont De Nemours and Company, priority 2009, published 2011)
Marks after values point to notes of the source that are not given here.

Legend:
Type in all cases: in vivo
Conditions in all cases: 100 = 100% disease control
[1] = system: Puccinia recondita f. sp. tritici; assay: Test I: wheat leaf rust on wheat seedlings, sprayed the day before inoculation, visual disease rating
From the text: (§1) General protocol for preparing test suspensions for Tests A-J: The test compounds were first dissolved in acetone in an amount equal to 3% of the final volume and then suspended at the desired concentration (in ppm) in acetone and purified water (50/50 mix) containing 250 ppm of the surfactant Trem® 014 (polyhydric alcohol esters). The resulting test suspensions were then used in tests A-J. Spraying a 200 ppm test suspension to the point of run-off on the test plants was the equivalent of a rate of 500 g/ha. […] The test suspension was sprayed to the point of run-off on wheat seedlings. […] A dash (-) indicates no test results. All results are for 200 ppm except where followed by “*”, which indicates 40 ppm.

[2] = system: Septoria tritici; assay: Test G: wheat leaf blotch on wheat seedlings, sprayed the day before inoculation, visual disease rating
From the text: General protocol for preparing test suspensions for Tests A-J: The test compounds were first dissolved in acetone in an amount equal to 3% of the final volume and then suspended at the desired concentration (in ppm) in acetone and purified water (50/50 mix) containing 250 ppm of the surfactant Trem® 014 (polyhydric alcohol esters). The resulting test suspensions were then used in tests A-J. Spraying a 200 ppm test suspension to the point of run-off on the test plants was the equivalent of a rate of 500 g/ha. […] The test suspension was sprayed to the point of run-off on wheat seedlings. The following day the seedlings were inoculated with a spore suspension of Septoria tritici (the causal agent of wheat leaf blotch) and incubated in saturated atmosphere at 24° C. for 48 h, and then moved to a growth chamber at 20° C. for 19 days, after which time visual disease ratings were made. […] A dash (-) indicates no test results. All results are for 200 ppm except where followed by “*”, which indicates 40 ppm.

[3] = system: Septoria nodorum; assay: Test F: wheat glume blotch on wheat seedlings, sprayed the day before inoculation, visual disease rating
From the text: as §1

[4] = system: Botrytis cinerea; assay: Test C: tomato Botrytis on tomato seedlings, sprayed the day before inoculation, visual disease rating
From the text: General protocol for preparing test suspensions for Tests A-J: The test compounds were first dissolved in acetone in an amount equal to 3% of the final volume and then suspended at the desired concentration (in ppm) in acetone and purified water (50/50 mix) containing 250 ppm of the surfactant Trem® 014 (polyhydric alcohol esters). The resulting test suspensions were then used in tests A-J. Spraying a 200 ppm test suspension to the point of run-off on the test plants was the equivalent of a rate of 500 g/ha. […] The test suspension was sprayed to the point of run-off on tomato seedlings. […] A dash (-) indicates no test results. All results are for 200 ppm except where followed by “*”, which indicates 40 ppm.

[5] = system: Alternaria solani; assay: Test D: tomato early blight, sprayed the day before inoculation, visual disease rating
From the text: as §1

[6] = system: Erysiphe graminis f. sp. tritici; assay: Test J: wheat powdery mildew on wheat seedlings, sprayed the day before inoculation, visual disease rating
From the text: as §1

[7] = 200 ppm, 0 = no control relative to controls

COc1cc(F)c(-c2c(-c3cccc(F)c3)c(C)nn2C)c(F)c1 [compound 78]
Test I disease control rating [1, 7]: 99% | Test G disease control rating [2, 7]: 92% | Test F disease control rating [3, 7]: 0% | Test C disease control rating [4, 7]: 91% | Test D disease control rating [5, 7]: 100% | Test J disease control rating [6, 7]: 100%

COc1cc(F)c(-c2c(-c3ccc(Cl)c(F)c3)c(C)nn2C)c(F)c1 [compound 79]
Test I disease control rating [1, 7]: 92% | Test G disease control rating [2, 7]: 95% | Test F disease control rating [3, 7]: 0% | Test C disease control rating [4, 7]: 53% | Test D disease control rating [5, 7]: 97% | Test J disease control rating [6, 7]: 100%

Cc1nc(Cl)c(-c2c(F)ccc(F)c2Cl)n1-c1ccc(Cl)cc1 [compound 80]
Test I disease control rating [1, 7]: 100% | Test G disease control rating [2, 7]: 98% | Test F disease control rating [3, 7]: 100% | Test C disease control rating [4, 7]: 90% | Test D disease control rating [5, 7]: 100% | Test J disease control rating [6, 7]: 100%

Cc1nc(Cl)c(-c2c(F)cccc2F)n1-c1ccc(OC(F)(F)F)cc1 [compound 81]
Test I disease control rating [1, 7]: 98% | Test G disease control rating [2, 7]: 93% | Test F disease control rating [3, 7]: 69% | Test C disease control rating [4, 7]: 81% | Test D disease control rating [5, 7]: 100% | Test J disease control rating [6, 7]: 100%

Cc1ccc(-n2c(C)nc(Cl)c2-c2c(F)cccc2F)cc1 [compound 82]
Test I disease control rating [1, 7]: 99% | Test G disease control rating [2, 7]: 91% | Test F disease control rating [3, 7]: 100% | Test C disease control rating [4, 7]: 90% | Test D disease control rating [5, 7]: 100% | Test J disease control rating [6, 7]: 100%

Cc1nc(Cl)c(-c2c(F)cccc2F)n1-c1ccc(F)cc1 [compound 83]
Test I disease control rating [1, 7]: 100% | Test G disease control rating [2, 7]: 98% | Test F disease control rating [3, 7]: 99% | Test C disease control rating [4, 7]: 97% | Test D disease control rating [5, 7]: 100% | Test J disease control rating [6, 7]: 100%

Fc1cccc(F)c1-c1c(Cl)nc(Br)n1-c1ccc(C(F)(F)F)cc1 [compound 84]
Test I disease control rating [1, 7]: 91% | Test G disease control rating [2, 7]: 88% | Test F disease control rating [3, 7]: 0% | Test C disease control rating [4, 7]: 0% | Test D disease control rating [5, 7]: 99% | Test J disease control rating [6, 7]: 99%

Fc1ccc(F)c(-c2c(Cl)nc(Br)n2-c2ccc(Cl)cc2)c1 [compound 85]
Test I disease control rating [1, 7]: 96% | Test G disease control rating [2, 7]: 98% | Test F disease control rating [3, 7]: 11% | Test C disease control rating [4, 7]: 73% | Test D disease control rating [5, 7]: 100% | Test J disease control rating [6, 7]: 100%

Fc1cccc(C(F)(F)F)c1-c1c(Cl)nc(Br)n1-c1ccc(Cl)cc1 [compound 86]
Test I disease control rating [1, 7]: 27% | Test G disease control rating [2, 7]: 93% | Test F disease control rating [3, 7]: 0% | Test C disease control rating [4, 7]: 0% | Test D disease control rating [5, 7]: 0% | Test J disease control rating [6, 7]: 99%

Cc1nn(C)c(-c2c(Cl)cccc2Cl)c1-c1ccc(Cl)cc1 [compound 87]
Test I disease control rating [1, 7]: 27% | Test G disease control rating [2, 7]: 84% | Test F disease control rating [3, 7]: 0% | Test C disease control rating [4, 7]: 0% | Test D disease control rating [5, 7]: 0% | Test J disease control rating [6, 7]: 99%

Cc1nn(C)c(-c2c(Cl)cccc2Cl)c1-c1cccc(F)c1 [compound 88]
Test I disease control rating [1, 7]: 68% | Test G disease control rating [2, 7]: 0% | Test F disease control rating [3, 7]: 0% | Test C disease control rating [4, 7]: 75% | Test D disease control rating [5, 7]: 0% | Test J disease control rating [6, 7]: 99%

Cc1nn(C)c(-c2c(Cl)cccc2Cl)c1-c1ccc(Cl)c(F)c1 [compound 89]
Test I disease control rating [1, 7]: 85% | Test G disease control rating [2, 7]: 3% | Test F disease control rating [3, 7]: 0% | Test C disease control rating [4, 7]: 0% | Test D disease control rating [5, 7]: 0% | Test J disease control rating [6, 7]: 98%

Fc1cccc(Cl)c1-c1c(Cl)nc(C(F)(F)F)n1-c1ccc(Cl)cc1 [compound 90]
Test I disease control rating [1, 7]: 54% | Test G disease control rating [2, 7]: 0% | Test F disease control rating [3, 7]: 0% | Test C disease control rating [4, 7]: 0% | Test D disease control rating [5, 7]: 0% | Test J disease control rating [6, 7]: 0%

Cc1nc(Cl)c(-c2c(F)ccc(Br)c2F)n1-c1ccc(Cl)cc1 [compound 91]
Test I disease control rating [1, 7]: 96% | Test G disease control rating [2, 7]: 99% | Test F disease control rating [3, 7]: 100% | Test C disease control rating [4, 7]: 98% | Test D disease control rating [5, 7]: 100% | Test J disease control rating [6, 7]: 100%

Cc1nc(Cl)c(-c2c(F)cccc2F)n1-c1ccc(C(F)(F)F)cc1 [compound 92]
Test I disease control rating [1, 7]: 89% | Test G disease control rating [2, 7]: 98% | Test F disease control rating [3, 7]: 0% | Test C disease control rating [4, 7]: 76% | Test D disease control rating [5, 7]: 100% | Test J disease control rating [6, 7]: 100%

Cc1nc(Cl)c(-c2cc(F)ccc2F)n1-c1ccc(Cl)cc1 [compound 93]
Test I disease control rating [1, 7]: 98% | Test G disease control rating [2, 7]: 99% | Test F disease control rating [3, 7]: 100% | Test C disease control rating [4, 7]: 97% | Test D disease control rating [5, 7]: 100% | Test J disease control rating [6, 7]: 100%

Cc1nc(Cl)c(-c2c(F)cccc2C(F)(F)F)n1-c1ccc(Cl)cc1 [compound 94]
Test I disease control rating [1, 7]: 99% | Test G disease control rating [2, 7]: 95% | Test F disease control rating [3, 7]: 0% | Test C disease control rating [4, 7]: 56% | Test D disease control rating [5, 7]: 53% | Test J disease control rating [6, 7]: 100%

Fc1cccc(F)c1-c1c(Cl)nc(Br)n1Cc1ccccc1 [compound 95]
Test I disease control rating [1, 7]: 100% | Test G disease control rating [2, 7]: 95% | Test F disease control rating [3, 7]: 95% | Test C disease control rating [4, 7]: 96% | Test D disease control rating [5, 7]: 97% | Test J disease control rating [6, 7]: 100%

COc1cc(F)c(-c2c(Br)nc(OC)n2-c2ccc(Cl)cc2)c(F)c1 [compound 96]
Test I disease control rating ([1]; 40 ppm (marked *)): 97* % | Test G disease control rating ([2]; 40 ppm (marked *)): 97* % | Test F disease control rating ([3]; 40 ppm (marked *)): 97* % | Test C disease control rating ([4]; 40 ppm (marked *)): 98* % | Test D disease control rating ([5]; 40 ppm (marked *)): 100* % | Test J disease control rating ([6]; 40 ppm (marked *)): 99* %

Cc1ccc(F)c(-c2c(Cl)ncn2-c2ccc(Cl)cc2)c1F [compound 97]
Test I disease control rating [1, 7]: 91% | Test G disease control rating [2, 7]: 95% | Test F disease control rating [3, 7]: 0% | Test C disease control rating [4, 7]: 94% | Test D disease control rating [5, 7]: 97% | Test J disease control rating [6, 7]: 99%

Fc1cc(F)c(-n2cnc(Cl)c2-c2ccc(Cl)cc2)c(F)c1 [compound 98]
Test I disease control rating ([1]; 40 ppm (marked *)): 0* % | Test G disease control rating ([2]; 40 ppm (marked *)): 27* % | Test F disease control rating ([3]; 40 ppm (marked *)): 0* % | Test C disease control rating ([4]; 40 ppm (marked *)): 0* % | Test D disease control rating ([5]; 40 ppm (marked *)): 0* % | Test J disease control rating ([6]; 40 ppm (marked *)): 0* %
